Reference: patent US8828908B2, “Herbicidally active bicyclic 1,3-dione compounds” (Syngenta Limited, priority 2007, dated 2014)

Tests used:
Type in all cases: in vivo
[1] = test system: Alopecurus myosuroides (ALOMY); assay: Example B pre-emergence herbicidal greenhouse test; conditions: 480 h, evaluated after 20 days, 100=total damage to plant, 0=no damage
Description: (§1) Seeds of a variety of test species were sown in standard soil in pots. After cultivation for one day (pre-emergence) or after 10 days cultivation (post-emergence) under controlled conditions in a glasshouse, the plants were sprayed with an aqueous spray solution derived from the formulation of the technical active ingredient in 0.6 ml acetone and 45 ml formulation solution containing 10.6% Emulsogen EL (Registry number 61791-12-6), 42.2% N-methylpyrrolidone, 42.2% dipropylene glycol monomethyl ether (Registry number 34590-94-8) and 0.2% X-77 (Registry number 11097-66-8). The test plants were then grown in a greenhouse under optimum conditions until, 15 days later for post-emergence and 20 days for pre-emergence, the test was evaluated (100=total damage to plant; 0=no damage to plant).
(§2) Alopecurus myosuroides (ALOMY), Avena fatua (AVEFA), Lolium perenne (LOLPE), Setaria faberi (SETFA), Digitaria sanguinalis (DIGSA), Echinochloa crus-galli (ECHCG)

Avena fatua (AVEFA) [2] = assay: Example B pre-emergence herbicidal greenhouse test; conditions: 480 h, evaluated after 20 days, 100=total damage to plant, 0=no damage
Description: as §1, §2

[3] = test system: Digitaria sanguinalis (DIGSA); assay: Example B pre-emergence herbicidal greenhouse test; conditions: 480 h, evaluated after 20 days, 100=total damage to plant, 0=no damage
Description: as §1, §2

[4] = test system: Echinochloa crus-galli (ECHCG); assay: Example B pre-emergence herbicidal greenhouse test; conditions: 480 h, evaluated after 20 days, 100=total damage to plant, 0=no damage
Description: as §1, §2

Lolium perenne (LOLPE) [5] = assay: Example B pre-emergence herbicidal greenhouse test; conditions: 480 h, evaluated after 20 days, 100=total damage to plant, 0=no damage
Description: as §1, §2

Setaria faberi (SETFA) [6] = assay: Example B pre-emergence herbicidal greenhouse test; conditions: 480 h, evaluated after 20 days, 100=total damage to plant, 0=no damage
Description: as §1, §2

[7] = test system: Alopecurus myosuroides (ALOMY); assay: Example B post-emergence herbicidal greenhouse test; conditions: 360 h, evaluated after 15 days, 100=total damage to plant, 0=no damage
Description: as §1, §2

Avena fatua (AVEFA) [8] = assay: as above; conditions: 360 h, evaluated after 15 days, 100=total damage to plant, 0=no damage
Description: as §1, §2

[9] = test system: Digitaria sanguinalis (DIGSA); assay: as above; conditions: 360 h, evaluated after 15 days, 100=total damage to plant, 0=no damage
Description: as §1, §2

[10] = test system: Echinochloa crus-galli (ECHCG); assay: as above; conditions: 360 h, evaluated after 15 days, 100=total damage to plant, 0=no damage
Description: as §1, §2

Lolium perenne (LOLPE) [11] = assay: as above; conditions: 360 h, evaluated after 15 days, 100=total damage to plant, 0=no damage
Description: as §1, §2

Setaria faberi (SETFA) [12] = assay: as above; conditions: 360 h, evaluated after 15 days, 100=total damage to plant, 0=no damage
Description: as §1, §2

[13] = test system: Alopecurus myosuroides (ALOMY); assay: Example A pre-emergence herbicidal glasshouse test; conditions: 312 h, Rate 250 g/ha, evaluated after 13 days, 100=total damage to plant, 0=no damage to plant
Description: (§3) Seeds of a variety of test species were sown in standard soil in pots. After cultivation for one day (pre-emergence) or after 8 days cultivation (post-emergence) under controlled conditions in a glasshouse (at 24/16° C., day/night; 14 hours light; 65% humidity), the plants were sprayed with an aqueous spray solution derived from the formulation of the technical active ingredient in acetone/water (50:50) solution containing 0.5% Tween 20 (polyoxyethelyene sorbitan monolaurate, CAS RN 9005-64-5). The test plants were then grown in a glasshouse under controlled conditions in a glasshouse (at 24/16° C., day/night; 14 hours light; 65% humidity) and watered twice daily. After 13 days for pre and post-emergence, the test was evaluated (100=total damage to plant; 0=no damage to plant).
(§4) Alopecurus myosuroides (ALOMY), Avena fatua (AVEFA), Setaria faberi (SETFA), Echinochloa crus-galli (ECHCG), Solanum nigrum (SOLNI) and Amaranthus retroflexus (AMARE)

[14] = test system: Amaranthus retroflexus (AMARE); assay: Example A pre-emergence herbicidal glasshouse test; conditions: 312 h, Rate 250 g/ha, evaluated after 13 days, 100=total damage to plant, 0=no damage to plant
Description: as §3, §4

Avena fatua (AVEFA) [15] = assay: Example A pre-emergence herbicidal glasshouse test; conditions: 312 h, Rate 250 g/ha, evaluated after 13 days, 100=total damage to plant, 0=no damage to plant
Description: as §3, §4

[16] = test system: Echinochloa crus-galli (ECHCG); assay: Example A pre-emergence herbicidal glasshouse test; conditions: 312 h, Rate 250 g/ha, evaluated after 13 days, 100=total damage to plant, 0=no damage to plant
Description: as §3, §4

Setaria faberi (SETFA) [17] = assay: Example A pre-emergence herbicidal glasshouse test; conditions: 312 h, Rate 250 g/ha, evaluated after 13 days, 100=total damage to plant, 0=no damage to plant
Description: as §3, §4

[18] = test system: Alopecurus myosuroides (ALOMY); assay: Example A post-emergence herbicidal glasshouse test; conditions: 312 h, evaluated after 13 days, 100=total damage to plant, 0=no damage
Description: as §3, §4

[19] = test system: Amaranthus retroflexus (AMARE); assay: as above; conditions: 312 h, evaluated after 13 days, 100=total damage to plant, 0=no damage
Description: as §3, §4

Avena fatua (AVEFA) [20] = assay: as above; conditions: 312 h, evaluated after 13 days, 100=total damage to plant, 0=no damage
Description: as §3, §4

[21] = test system: Echinochloa crus-galli (ECHCG); assay: as above; conditions: 312 h, evaluated after 13 days, 100=total damage to plant, 0=no damage
Description: as §3, §4

Setaria faberi (SETFA) [22] = assay: as above; conditions: 312 h, evaluated after 13 days, 100=total damage to plant, 0=no damage
Description: as §3, §4

| Compound | pest or weed control at 250 g/ha [13] [%] | pest or weed control at 250 g/ha [14] [%] | pest or weed control at 250 g/ha (Avena fatua (AVEFA) [15]) [%] | pest or weed control at 250 g/ha [16] [%] | pest or weed control at 250 g/ha (Setaria faberi (SETFA) [17]) [%] | pest or weed control at 250 g/ha [18] [%] | pest or weed control at 250 g/ha [19] [%] | pest or weed control at 250 g/ha (Avena fatua (AVEFA) [20]) [%] | pest or weed control at 250 g/ha [21] [%] | pest or weed control at 250 g/ha (Setaria faberi (SETFA) [22]) [%] | other results |
| --- | --- | --- | --- | --- | --- | --- | --- | --- | --- | --- | --- |
| CCc1ccc(-c2ccccc2)cc1C1=C(O)[C@H]2CC[C@H](C2)C1=O (single isomer, unassigned) [Compound T2] |  |  |  |  |  |  |  |  |  |  | pest or weed control at 250 g/ha [1]: 0%; pest or weed control at 250 g/ha (Avena fatua (AVEFA) [2]): 20%; pest or weed control at 250 g/ha [3]: 0%; pest or weed control at 250 g/ha [4]: 100%; pest or weed control at 250 g/ha (Lolium perenne (LOLPE) [5]): 10%; pest or weed control at 250 g/ha (Setaria faberi (SETFA) [6]): 0%; pest or weed control at 125 g/ha [7]: 10%; pest or weed control at 125 g/ha (Avena fatua (AVEFA) [8]): 0%; pest or weed control at 125 g/ha [9]: 0%; pest or weed control at 125 g/ha [10]: 60%; pest or weed control at 125 g/ha (Lolium perenne (LOLPE) [11]): 0%; pest or weed control at 125 g/ha (Setaria faberi (SETFA) [12]): 30% |
| Cc1cc(-c2ccc(C)c(C3=C(O)[C@H]4CC[C@H](C4)C3=O)c2)ccc1Cl (single isomer, unassigned) [Compound T24] |  |  |  |  |  |  |  |  |  |  | pest or weed control at 250 g/ha [1]: 40%; pest or weed control at 250 g/ha (Avena fatua (AVEFA) [2]): 0%; pest or weed control at 250 g/ha [3]: 70%; pest or weed control at 250 g/ha [4]: 80%; pest or weed control at 250 g/ha (Lolium perenne (LOLPE) [5]): 10%; pest or weed control at 250 g/ha (Setaria faberi (SETFA) [6]): 20%; pest or weed control at 125 g/ha [9]: 0%; pest or weed control at 125 g/ha [10]: 30%; pest or weed control at 125 g/ha (Setaria faberi (SETFA) [12]): 0% |
| Cc1cc(-c2ccccc2)ccc1C1=C(O)[C@H]2CC[C@H](C2)C1=O (single isomer, unassigned) [Compound T58] | 10 | 30 | 0 | 40 | 20 | 60 | 0 | 0 | 70 | 100 |  |
| CCc1cc(-c2ccc(C)cc2)ccc1C1=C(O)[C@H]2CC[C@H](C2)C1=O (single isomer, unassigned) [Compound T60] | 60 | 0 | 30 | 100 | 100 | 90 | 0 | 50 | 100 | 100 |  |
| CCc1ccc(-c2cnc(Cl)cc2C)cc1C1=C(O)[C@H]2CC[C@H](C2)C1=O (single isomer, unassigned) [Compound T77] | 0 | 0 | 0 | 0 | 30 | 30 | 0 | 0 | 80 | 90 |  |
| CCc1ccc(-c2ccc(Cl)nc2)cc1C1=C(O)[C@H]2CC[C@H](C2)C1=O (single isomer, unassigned) [Compound T78] | 40 | 0 | 30 | 60 | 90 | 70 | 0 | 60 | 100 | 100 |  |
| CCc1ccc(-c2ccc(Cl)nc2C)cc1C1=C(O)[C@H]2CC[C@H](C2)C1=O (single isomer, unassigned) [Compound T79] | 0 | 0 | 0 | 0 | 70 | 40 | 0 | 20 | 90 | 100 |  |
| CCc1ccc(-c2ccc(Cl)nc2Cl)cc1C1=C(O)[C@H]2CC[C@H](C2)C1=O (single isomer, unassigned) [Compound T80] | 30 | 0 | 50 | 90 | 100 | 70 | 0 | 70 | 90 | 100 |  |
| Cc1ccc(-c2ccc(Cl)nc2)cc1C1=C(O)[C@H]2CC[C@H](C2)C1=O (single isomer, unassigned) [Compound T81] | 30 | 20 | 40 | 50 | 70 | 50 | 0 | 70 | 80 | 90 |  |
| CCOc1ccc(-c2ccc(Cl)cc2)cc1C1=C(O)[C@H]2CC[C@H](C2)C1=O [Compound T52] | 0 | 0 | 0 | 0 | 0 | 40 | 0 | 0 | 80 | 90 |  |
| COc1ccc(-c2ccc(Cl)cc2Cl)cc1C1=C(O)[C@H]2CC[C@H](C2)C1=O [Compound T53] | 0 | 0 | 0 | 0 | 0 | 0 | 0 | 0 | 30 | 80 |  |
| CCc1ccc(-c2ccc(Cl)cc2Cl)cc1C1=C(O)[C@H]2C=C[C@H](CC2)C1=O [Compound T56] | 10 | 60 | 0 | 30 | 50 | 60 | 10 | 70 | 100 | 100 |  |
| CCc1ccc(-c2ccc(Cl)cc2F)cc1C1=C(O)[C@H]2C=C[C@H](CC2)C1=O [Compound T57, 3-(4′-chloro-4-ethyl-2′-fluorobiphen-3-yl)bicyclo[3.2.2]non-6-ene-2,4-dione] | 0 | 0 | 0 | 50 | 90 | 30 | 0 | 40 | 100 | 100 |  |
| CCc1ccc(-c2ccc(Cl)cc2)cc1C1=C(O)C2CC(C1=O)C2(C)C (stereo not drawn) [Compound T69, 3-(4′-chloro-4-ethylbiphen-3-yl)-6,6-dimethylbicyclo[3.1.1]heptane-2,4-dione] | 20 | 0 | 0 | 100 | 90 | 70 | 0 | 80 | 100 | 100 |  |
